Test results published in patent US9487502B2, “Chemical compounds” (Syngenta Limited, priority 2013, dated 2016).

Key:
Format in all cases: in vivo
Zea mays [1] = experiment: Post-emergence herbicidal activity, ZEAMX; design: key: 5=total damage to plant; 0=no damage to plant; settings: 1000 g/Ha, sprayed post-emergence (8 days cultivation), evaluated after 13 days, scale 0-5
Protocol: (§1) Seeds of a variety of test species were sown in standard soil in pots. After 8 days cultivation (post-emergence) under controlled conditions in a glasshouse (at 24/16° C., day/night; 14 hours light; 65% humidity), the plants were sprayed with an aqueous spray solution derived from the formulation of the technical active ingredient in acetone/water (50:50) solution containing 0.5% Tween 20 (polyoxyethelyene sorbitan monolaurate, CAS RN 9005-64-5). The test plants were then grown in a glasshouse under controlled conditions (at 24/16° C., day/night; 14 hours light; 65% humidity) and watered twice daily. After 13 days, the test was evaluated (5=total damage to plant; 0=no damage to plant).

Abutilon theophrasti [2] = experiment: Post-emergence herbicidal activity, ABUTH; design: key: 5=total damage to plant; 0=no damage to plant; settings: 1000 g/Ha, sprayed post-emergence (8 days cultivation), evaluated after 13 days, scale 0-5
Protocol: as §1

Alopecurus myosuroides [3] = experiment: Pre-emergence herbicidal activity, ALOMY; design: key: 5=total damage to plant; 0=no damage to plant; settings: 1000 g/Ha, sprayed pre-emergence, evaluated after 13 days, scale 0-5
Protocol: as §1, with “After” for “After 8 days”, “for one day (pre-emergence)” for “(post-emergence)”

Echinochloa crus-galli [4] = experiment: Pre-emergence herbicidal activity, ECHCG; design: key: 5=total damage to plant; 0=no damage to plant; settings: 1000 g/Ha, sprayed pre-emergence, evaluated after 13 days, scale 0-5
Protocol: as §1, with “After” for “After 8 days”, “for one day (pre-emergence)” for “(post-emergence)”

Echinochloa crus-galli [5] = experiment: Post-emergence herbicidal activity, ECHCG; design: key: 5=total damage to plant; 0=no damage to plant; settings: 1000 g/Ha, sprayed post-emergence (8 days cultivation), evaluated after 13 days, scale 0-5
Protocol: as §1

Alopecurus myosuroides [6] = experiment: Post-emergence herbicidal activity, ALOMY; design: key: 5=total damage to plant; 0=no damage to plant; settings: 1000 g/Ha, sprayed post-emergence (8 days cultivation), evaluated after 13 days, scale 0-5
Protocol: as §1

Setaria faberi [7] = experiment: Pre-emergence herbicidal activity, SETFA; design: key: 5=total damage to plant; 0=no damage to plant; settings: 1000 g/Ha, sprayed pre-emergence, evaluated after 13 days, scale 0-5
Protocol: as §1, with “After” for “After 8 days”, “for one day (pre-emergence)” for “(post-emergence)”

Amaranthus retroflexus [8] = experiment: Pre-emergence herbicidal activity, AMARE; design: key: 5=total damage to plant; 0=no damage to plant; settings: 1000 g/Ha, sprayed pre-emergence, evaluated after 13 days, scale 0-5
Protocol: as §1, with “After” for “After 8 days”, “for one day (pre-emergence)” for “(post-emergence)”

Amaranthus retroflexus [9] = experiment: Post-emergence herbicidal activity, AMARE; design: key: 5=total damage to plant; 0=no damage to plant; settings: 1000 g/Ha, sprayed post-emergence (8 days cultivation), evaluated after 13 days, scale 0-5
Protocol: as §1

Setaria faberi [10] = experiment: Post-emergence herbicidal activity, SETFA; design: key: 5=total damage to plant; 0=no damage to plant; settings: 1000 g/Ha, sprayed post-emergence (8 days cultivation), evaluated after 13 days, scale 0-5
Protocol: as §1

Zea mays [11] = experiment: Pre-emergence herbicidal activity, ZEAMX; settings: 1000 g/Ha, sprayed pre-emergence, evaluated after 13 days, scale 0-5
Protocol: as §1, with “After” for “After 8 days”, “for one day (pre-emergence)” for “(post-emergence)”

Abutilon theophrasti [12] = experiment: Pre-emergence herbicidal activity, ABUTH; design: key: 5=total damage to plant; 0=no damage to plant; settings: 1000 g/Ha, sprayed pre-emergence, evaluated after 13 days, scale 0-5
Protocol: as §1, with “After” for “After 8 days”, “for one day (pre-emergence)” for “(post-emergence)”

## CON1C(=O)N(c2cc(C(C)(C)C)ncn2)C(O)C1C (stereo not shown) [Example A6, 1-(6-tert-butylpyrimidin-4-yl)-5-hydroxy-3-methoxy-4-methyl-imidazolidin-2-one]
Zea mays [1]
  ZEAMX damage score, application post-emergence: 5
Abutilon theophrasti [2]
  ABUTH damage score, application post-emergence: 5
Alopecurus myosuroides [3]
  ALOMY damage score, application pre-emergence: 4
Echinochloa crus-galli [4]
  ECHCG damage score, application pre-emergence: 5
Echinochloa crus-galli [5]
  ECHCG damage score, application post-emergence: 5
Alopecurus myosuroides [6]
  ALOMY damage score, application post-emergence: 5
Setaria faberi [7]
  SETFA damage score, application pre-emergence: 5
Amaranthus retroflexus [8]
  AMARE damage score, application pre-emergence: 5
Amaranthus retroflexus [9]
  AMARE damage score, application post-emergence: 5
Setaria faberi [10]
  SETFA damage score, application post-emergence: 5

## COC1C(O)N(c2cc(C(C)(C)C)ncn2)C(=O)N1OC (stereo not shown) [Example A7]
Zea mays [1]
  ZEAMX damage score, application post-emergence: 4
Abutilon theophrasti [2]
  ABUTH damage score, application post-emergence: 5
Alopecurus myosuroides [3]
  ALOMY damage score, application pre-emergence: 4
Echinochloa crus-galli [4]
  ECHCG damage score, application pre-emergence: 4
Zea mays [11]
  ZEAMX damage score, application pre-emergence: 4
Echinochloa crus-galli [5]
  ECHCG damage score, application post-emergence: 4
Alopecurus myosuroides [6]
  ALOMY damage score, application post-emergence: 5
Setaria faberi [7]
  SETFA damage score, application pre-emergence: 4
Amaranthus retroflexus [8]
  AMARE damage score, application pre-emergence: 5
Amaranthus retroflexus [9]
  AMARE damage score, application post-emergence: 5
Setaria faberi [10]
  SETFA damage score, application post-emergence: 5
Abutilon theophrasti [12]
  ABUTH damage score, application pre-emergence: 5

## CCOC1C(O)N(c2cc(C(C)(C)C)ncn2)C(=O)N1OC (stereo not shown) [Example A8]
Zea mays [1]
  ZEAMX damage score, application post-emergence: 4
Abutilon theophrasti [2]
  ABUTH damage score, application post-emergence: 5
Alopecurus myosuroides [3]
  ALOMY damage score, application pre-emergence: 5
Echinochloa crus-galli [4]
  ECHCG damage score, application pre-emergence: 5
Zea mays [11]
  ZEAMX damage score, application pre-emergence: 1
Echinochloa crus-galli [5]
  ECHCG damage score, application post-emergence: 5
Alopecurus myosuroides [6]
  ALOMY damage score, application post-emergence: 5
Setaria faberi [7]
  SETFA damage score, application pre-emergence: 5
Amaranthus retroflexus [8]
  AMARE damage score, application pre-emergence: 5
Amaranthus retroflexus [9]
  AMARE damage score, application post-emergence: 5
Setaria faberi [10]
  SETFA damage score, application post-emergence: 5
Abutilon theophrasti [12]
  ABUTH damage score, application pre-emergence: 5

## CON1C(=O)N(c2cc(C(C)(C)C)ncn2)C(O)C1O (stereo not shown) [Example A9]
Zea mays [1]
  ZEAMX damage score, application post-emergence: 1
Abutilon theophrasti [2]
  ABUTH damage score, application post-emergence: 5
Alopecurus myosuroides [3]
  ALOMY damage score, application pre-emergence: 3
Echinochloa crus-galli [4]
  ECHCG damage score, application pre-emergence: 2
Zea mays [11]
  ZEAMX damage score, application pre-emergence: 1
Echinochloa crus-galli [5]
  ECHCG damage score, application post-emergence: 4
Alopecurus myosuroides [6]
  ALOMY damage score, application post-emergence: 4
Setaria faberi [7]
  SETFA damage score, application pre-emergence: 1
Amaranthus retroflexus [8]
  AMARE damage score, application pre-emergence: 5
Amaranthus retroflexus [9]
  AMARE damage score, application post-emergence: 5
Setaria faberi [10]
  SETFA damage score, application post-emergence: 4
Abutilon theophrasti [12]
  ABUTH damage score, application pre-emergence: 0

## CCO[C@@H]1C(O)N(c2cc(C(C)(C)F)ncn2)C(=O)N1C (stereo partly shown) [Example A38]
Zea mays [1]
  ZEAMX damage score, application post-emergence: 5
Abutilon theophrasti [2]
  ABUTH damage score, application post-emergence: 5
Echinochloa crus-galli [4]
  ECHCG damage score, application pre-emergence: 5
Zea mays [11]
  ZEAMX damage score, application pre-emergence: 2
Echinochloa crus-galli [5]
  ECHCG damage score, application post-emergence: 5
Setaria faberi [7]
  SETFA damage score, application pre-emergence: 5
Amaranthus retroflexus [8]
  AMARE damage score, application pre-emergence: 5
Amaranthus retroflexus [9]
  AMARE damage score, application post-emergence: 5
Setaria faberi [10]
  SETFA damage score, application post-emergence: 5
Abutilon theophrasti [12]
  ABUTH damage score, application pre-emergence: 5

## CN1CC(O)N(c2cc(C(F)(F)Cl)ncn2)C1=O (stereo not shown) [Example A39]
Zea mays [1]
  ZEAMX damage score, application post-emergence: 5
Abutilon theophrasti [2]
  ABUTH damage score, application post-emergence: 5
Echinochloa crus-galli [4]
  ECHCG damage score, application pre-emergence: 5
Zea mays [11]
  ZEAMX damage score, application pre-emergence: 2
Echinochloa crus-galli [5]
  ECHCG damage score, application post-emergence: 5
Setaria faberi [7]
  SETFA damage score, application pre-emergence: 5
Amaranthus retroflexus [8]
  AMARE damage score, application pre-emergence: 5
Amaranthus retroflexus [9]
  AMARE damage score, application post-emergence: 5
Setaria faberi [10]
  SETFA damage score, application post-emergence: 5
Abutilon theophrasti [12]
  ABUTH damage score, application pre-emergence: 5

## CN1CC(O)N(c2cc(C(C)(C)CCl)ncn2)C1=O (stereo not shown) [Example A40]
Zea mays [1]
  ZEAMX damage score, application post-emergence: 5
Abutilon theophrasti [2]
  ABUTH damage score, application post-emergence: 5
Echinochloa crus-galli [4]
  ECHCG damage score, application pre-emergence: 5
Zea mays [11]
  ZEAMX damage score, application pre-emergence: 2
Echinochloa crus-galli [5]
  ECHCG damage score, application post-emergence: 5
Setaria faberi [7]
  SETFA damage score, application pre-emergence: 5
Amaranthus retroflexus [8]
  AMARE damage score, application pre-emergence: 5
Amaranthus retroflexus [9]
  AMARE damage score, application post-emergence: 5
Setaria faberi [10]
  SETFA damage score, application post-emergence: 5
Abutilon theophrasti [12]
  ABUTH damage score, application pre-emergence: 5
